In one experiment the target is T1, CBP KIX Y650A (Mus musculus, UniProt P45481, Y650A).
T1 construct: made in house; host or cells: E. coli BL21(DE3) pArg
The experiment can be described thus: Equilibrium fluorescence polarization, CBP KIX variant Y650A. The settings on record: 25° C. It is filed as binding. In general terms: Polarisation of emitted light reports the rotation of a fluorescent probe.

Another experiment deals with T2, CBP KIX wild type (Mus musculus, UniProt P45481).
T2 construct: made in house; host or cells: E. coli BL21(DE3) pArg
Briefly: Equilibrium fluorescence polarization, wild type CBP KIX. It is filed as binding. To be noted: 25° C.

The target of a further experiment is T3, CBP KIX I660A (Mus musculus, UniProt P45481, I660A).
T3 construct: made in house; host or cells: E. coli BL21(DE3) pArg
The experiment can be described thus: Equilibrium fluorescence polarization, CBP KIX variant I660A. It is filed as binding. To be noted: 25° C.

The target of the next experiment is T4, CBP KIX E655A (Mus musculus, UniProt P45481, E655A).
T4 construct: made in house; host or cells: E. coli BL21(DE3) pArg
Briefly: Equilibrium fluorescence polarization, CBP KIX variant E655A. In kind it is binding. To be noted: 25° C.

The target in the next experiment is T5, CBP KIX K662A (Mus musculus, UniProt P45481, K662A).
T5 construct: made in house; host or cells: E. coli BL21(DE3) pArg
Briefly: Equilibrium fluorescence polarization, CBP KIX variant K662A. It is filed as binding. The settings on record: 25° C.

In a further experiment the target is T6, CBP KIX Y658F (Mus musculus, UniProt P45481, Y658F).
T6 construct: made in house; host or cells: E. coli BL21(DE3) pArg
Briefly: Equilibrium fluorescence polarization, CBP KIX variant Y658F. It is filed as binding. To be noted: 25° C.

A further experiment has as its target T7, CBP KIX LL652-3AA (Mus musculus, UniProt P45481, L652A/L653A).
T7 construct: made in house; host or cells: E. coli BL21(DE3) pArg
Briefly: Equilibrium fluorescence polarization, CBP KIX variant LL652-3AA. The settings on record: 25° C. It is filed as binding.

The next experiment concerns the target T8, GST-KIX (Mus musculus, UniProt P45481).
T8 construct: pGST-ΔKIX(588-683) (a gift from Jennifer Nyborg); made in house; host or cells: E. coli BL21(DE3) pArg
The experiment can be described thus: Fluorescence polarization, wild type GST-KIX. In kind it is binding.

A further experiment has as its target T9, CBP KIX L599A (Mus musculus, UniProt P45481, L599A).
T9 construct: made in house; host or cells: E. coli BL21(DE3) pArg
The experiment can be described thus: Equilibrium fluorescence polarization, CBP KIX variant L599A. The settings on record: 25° C. In kind it is binding.

A further experiment has as its target T10, CBP KIX Q661A (Mus musculus, UniProt P45481, Q661A).
T10 construct: made in house; host or cells: E. coli BL21(DE3) pArg
The experiment can be described thus: Equilibrium fluorescence polarization, CBP KIX variant Q661A. In kind it is binding. To be noted: 25° C.

The target in the next experiment is T11, Carbonic anhydrase II (Homo sapiens, UniProt P00918).
T11 construct: purchased Sigma
The experiment can be described thus: Fluorescence polarization specificity, carbonic anhydrase II. It is filed as binding. The settings on record: carbonic anhydrase II as target protein; read-out: Kd CA. From the text:
(§1) Given the myriad protein surfaces present in the cell, the utility of molecules that recognize protein surfaces will depend on their ability to interact selectively with the desired protein.

Another experiment concerns the target T12, CBP KIX L603A (Mus musculus, UniProt P45481, L603A).
T12 construct: made in house; host or cells: E. coli BL21(DE3) pArg
Briefly: Equilibrium fluorescence polarization, CBP KIX variant L603A. In kind it is binding. To be noted: 25° C.

The target in a further experiment is T13, Calmodulin (Homo sapiens, UniProt P0DP23).
T13 construct: purchased Sigma
Briefly: Fluorescence polarization specificity, calmodulin. In kind it is binding. The settings on record: calmodulin as target protein; read-out: Kd CalM.
From the text: as §1

In experiment [1] the target is T14, HisKIX (His-tagged CBP KIX domain) (Mus musculus, UniProt P45481).
T14 construct: The CBP KIX-coding region (residues 586 to 672) of pGEX-KT KIX 10-672; made in house; host or cells: E. coli BL21(DE3) pArg
The experiment can be described thus: Equilibrium fluorescence polarization, HisKIX binding. The settings on record: 25° C.

The target in the next experiment is T15, CBP KIX Y658A (Mus musculus, UniProt P45481, Y658A).
T15 construct: made in house; host or cells: E. coli BL21(DE3) pArg
Briefly: Equilibrium fluorescence polarization, CBP KIX variant Y658A. It is filed as binding. The settings on record: 25° C.

The next experiment concerns the target T16, CBP KIX I657A (Mus musculus, UniProt P45481, I657A).
T16 construct: made in house; host or cells: E. coli BL21(DE3) pArg
Briefly: Equilibrium fluorescence polarization, CBP KIX variant I657A. It is filed as binding. To be noted: 25° C.

The target of the next experiment is T17, CBP KIX K606A (Mus musculus, UniProt P45481, K606A).
T17 construct: made in house; host or cells: E. coli BL21(DE3) pArg
Briefly: Equilibrium fluorescence polarization, CBP KIX variant K606A. In kind it is binding. To be noted: 25° C.

Values joined by “and” are separate entries in the source; they are usually repeats but may differ in a detail not shown here. Equal values may be shown once. Read-outs that look alike come from different tables or passages of the source. Peptide text beside a SMILES is read from it. * marks the point of attachment. Fluorescein(5-NHCOCH2) = O=C(C*)Nc1ccc2c(c1)C(=O)OC21c2ccc(O)cc2Oc2cc(O)ccc21

By Kd is commonly meant the constant that tells how readily two partners part at equilibrium.

T14 sequence (P45481 586-672): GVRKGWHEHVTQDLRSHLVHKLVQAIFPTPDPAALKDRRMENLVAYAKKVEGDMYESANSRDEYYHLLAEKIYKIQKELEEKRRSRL
T17 sequence (P45481 586-665 K606A limits assumed): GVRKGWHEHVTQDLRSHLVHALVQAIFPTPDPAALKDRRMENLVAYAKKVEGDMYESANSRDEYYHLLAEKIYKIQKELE
T9 sequence (P45481 586-665 L599A limits assumed): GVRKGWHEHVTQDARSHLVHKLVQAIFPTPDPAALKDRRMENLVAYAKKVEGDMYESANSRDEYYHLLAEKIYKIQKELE
T12 sequence (P45481 586-665 L603A limits assumed): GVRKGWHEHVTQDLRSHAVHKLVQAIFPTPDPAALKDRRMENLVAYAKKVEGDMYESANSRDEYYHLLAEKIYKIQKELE
T2 sequence (P45481 586-665 limits assumed): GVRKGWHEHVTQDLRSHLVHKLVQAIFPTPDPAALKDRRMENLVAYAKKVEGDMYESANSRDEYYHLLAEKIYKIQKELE
T6 sequence (P45481 586-665 Y658F limits assumed): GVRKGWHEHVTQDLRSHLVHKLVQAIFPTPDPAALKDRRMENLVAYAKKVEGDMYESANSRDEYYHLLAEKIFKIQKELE
T16 sequence (P45481 586-665 I657A limits assumed): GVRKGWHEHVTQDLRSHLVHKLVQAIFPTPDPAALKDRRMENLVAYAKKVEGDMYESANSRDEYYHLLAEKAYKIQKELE
T1 sequence (P45481 586-665 Y650A limits assumed): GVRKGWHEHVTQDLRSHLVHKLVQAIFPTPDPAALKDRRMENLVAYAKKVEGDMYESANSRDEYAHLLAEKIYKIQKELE
T3 sequence (P45481 586-665 I660A limits assumed): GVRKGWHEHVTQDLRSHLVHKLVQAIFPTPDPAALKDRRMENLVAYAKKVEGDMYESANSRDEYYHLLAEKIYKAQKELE
T5 sequence (P45481 586-665 K662A limits assumed): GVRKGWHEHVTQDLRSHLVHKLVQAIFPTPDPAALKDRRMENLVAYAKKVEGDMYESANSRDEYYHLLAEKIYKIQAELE
T10 sequence (P45481 586-665 Q661A limits assumed): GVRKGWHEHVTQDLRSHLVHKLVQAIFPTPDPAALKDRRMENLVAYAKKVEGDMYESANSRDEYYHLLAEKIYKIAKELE
T4 sequence (P45481 586-665 E655A limits assumed): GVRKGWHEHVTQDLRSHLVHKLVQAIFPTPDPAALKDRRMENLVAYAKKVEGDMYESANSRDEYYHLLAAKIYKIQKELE
T7 sequence (P45481 586-665 L652A/L653A): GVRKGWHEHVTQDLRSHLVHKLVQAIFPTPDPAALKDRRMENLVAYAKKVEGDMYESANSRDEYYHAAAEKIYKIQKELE
T8 sequence (P45481 588-683): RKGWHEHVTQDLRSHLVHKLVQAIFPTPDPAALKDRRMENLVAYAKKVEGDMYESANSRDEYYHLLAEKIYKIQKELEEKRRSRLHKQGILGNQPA
T15 sequence (P45481 586-665 Y658A limits assumed): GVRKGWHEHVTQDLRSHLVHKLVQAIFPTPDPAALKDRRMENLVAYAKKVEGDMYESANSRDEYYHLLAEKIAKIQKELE

Turning to `CC[C@H](C)[C@H](NC(=O)CN)C(=O)N[C@@H](CO)C(=O)N[C@@H](Cc1c[nH]c2ccccc12)C(=O)N1CCC[C@H]1C(=O)N[C@H](C(=O)N[C@@H](Cc1ccccc1)C(=O)N[C@@H](CCC(=O)O)C(=O)NCC(=O)N[C@@H](CC(=O)O)C(=O)N[C@@H](CC(=O)O)C(=O)N[C@@H](C)C(=O)N1CCC[C@H]1C(=O)N[C@H](C(=O)N[C@@H](CCCNC(=N)N)C(=O)N[C@@H](CCCNC(=N)N)C(=O)N[C@@H](CC(C)C)C(=O)N[C@@H](CO)C(=O)N[C@@H](Cc1ccccc1)C(=O)N[C@@H](Cc1ccccc1)C(=O)N[C@@H](Cc1ccc(O)cc1)C(=O)N[C@H](C(=O)N[C@@H](CC(C)C)C(=O)N[C@@H](CC(C)C)C(=O)N[C@@H](CC(=O)O)C(=O)N[C@@H](CC(C)C)C(=O)N[C@@H](Cc1ccc(O)cc1)C(=O)N[C@@H](CC(C)C)C(=O)N[C@@H](CC(=O)O)C(=O)N[C@@H](C)C(=O)N1CCC[C@H]1C(=O)NCC(=O)N[C@H](C(=O)N[C@@H](CSCC(=O)Nc1ccc2c(c1)C(=O)OC21c2ccc(O)cc2Oc2cc(O)ccc21)C(N)=O)C(C)C)[C@@H](C)CC)C(C)C)[C@@H](C)O` [PPKID6] (H-GISWPTFEGDDAPVRRLSFFYILLDLYLDAPGVC(Fluorescein(5-NHCOCH2))-NH2), the Kd on CBP KIX Y650A was determined as 1300 ± 200 nM; on CBP KIX wild type it was 540 ± 60 nM; on CBP KIX I660A, 6.1 ± 0.7 µM; on CBP KIX E655A, 1700 ± 200 nM; at CBP KIX K662A, 1800 ± 300 nM; at CBP KIX Y658F, 2800 ± 400 nM. The Kd on CBP KIX LL652-3AA was determined as 140 ± 20 nM; on GST-KIX it was 714 ± 128 nM; on CBP KIX L599A it was 3.3 ± 0.3 µM; at CBP KIX Q661A, 410 ± 60 nM; at Carbonic anhydrase II, 79 ± 13 µM; on CBP KIX L603A, 2500 ± 300 nM. Also, the Kd at Calmodulin is no less than 168 µM; in [1] (fluorescein-labeled phosphopeptide, read-out: Kd HisKIX, phosphorylated peptide (P)), 624 ± 49 nM; in [1] (label shows phosphorylated (P) or unphosphorylated (U) form, read-out: Kd HisKIX) it was 1500 to 3100 nM and 1500 nM; on CBP KIX Y658A it was 1700 ± 400 nM; on CBP KIX I657A, 3.6 ± 0.4 µM; on CBP KIX K606A, 1200 ± 100 nM.

These data come from patent US20110028686A1, “Protein binding miniature proteins” (Yale University, priority 2000, published 2011).
